This passage reports T/C results from PubChem BioAssay AID330 (DTP/NCI, 2004).

The structures appear in SMILES notation. “And” between values parts separate entries of the source, which are not always exact repeats. Equal values may be shown once. Toxic doses and inconclusive results are not listed.

This assay relates to P388 leukemia ip, CD2F1 mice, survival T/C. The experiment in a line: NCI In Vivo Anticancer Drug Screen. Data for tumor model P388 Leukemia (intraperitoneal) in CD2F1 (CDF1) mice. Conditions: endpoint: median survival time, higher = longer survival. The essentials: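 Mice carrying the transplanted tumor received test compound or vehicle. Survival was recorded in each group, and the value is the treated-group measurement divided by that of the vehicle-treated control group.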

[1] abbreviates: dose: 12.5 mg/kg/injection, schedule: Q01DX009 (ip), vehicle: distilled water + Tween-80.
Setting [2] is: dose: 25.0 mg/kg/injection, schedule: Q01DX009 (ip), vehicle: distilled water + Tween-80.
Setting [3] is: dose: 60.0 mg/kg/injection, schedule: Q01DX005 (ip), vehicle: saline with Tween-80.
[4] abbreviates: dose: 120.0 mg/kg/injection, schedule: Q01DX005 (ip), vehicle: saline with Tween-80.
The mark [5] stands for this setting: dose: 240.0 mg/kg/injection, schedule: Q01DX005 (ip), vehicle: saline with Tween-80.
The mark [6] stands for this setting: dose: 50.0 mg/kg/injection, schedule: Q01DX005 (ip), vehicle: saline with Tween-80.
The mark [7] stands for this setting: dose: 100.0 mg/kg/injection, schedule: Q01DX005 (ip), vehicle: saline with Tween-80.
[8] abbreviates: dose: 200.0 mg/kg/injection, schedule: Q01DX005 (ip), vehicle: saline with Tween-80.
Where [9] appears, read: dose: 50.0 mg/kg/injection, schedule: Q01DX005 (ip), vehicle: Klucel (hydroxypropylcellulose) (HPC).
[10] abbreviates: dose: 100.0 mg/kg/injection, schedule: Q01DX005 (ip), vehicle: Klucel (hydroxypropylcellulose) (HPC).
[11] abbreviates: dose: 200.0 mg/kg/injection, schedule: Q01DX001 (ip), vehicle: saline with Tween-80.
Where [12] appears, read: dose: 400.0 mg/kg/injection, schedule: Q01DX001 (ip), vehicle: saline with Tween-80.

For `CCOC(OCC)C(=O)OCC(=O)[C@]1(O)Cc2c(O)c3c(c(O)c2[C@@H](OC2CC(N)C(O)C(C)O2)C1)C(=O)c1c(OC)cccc1C3=O` (stereo not given in full), the T/C was 111 % of control (dose: 0.13 mg/kg/injection, schedule: Q03HX008 (ip), vehicle: saline); 117 % of control (dose: 0.25 mg/kg/injection, schedule: Q03HX008 (ip), vehicle: saline); 160 % of control (dose: 0.5 mg/kg/injection, schedule: Q01DX009 (ip), vehicle: saline); 118 % of control (dose: 1.0 mg/kg/injection, schedule: Q01DX001 (ip), vehicle: saline); 173 % of control (dose: 1.0 mg/kg/injection, schedule: Q01DX009 (ip), vehicle: saline); 123 % of control (dose: 2.0 mg/kg/injection, schedule: Q01DX001 (ip), vehicle: saline). Besides, the T/C by setting is: (dose: 2.0 mg/kg/injection, schedule: Q01DX009 (ip), vehicle: saline) 245 % of control; (dose: 4.0 mg/kg/injection, schedule: Q01DX009 (ip), vehicle: saline) 198 % of control; (dose: 4.0 mg/kg/injection, schedule: Q03HX008 (ip), vehicle: saline) 168 % of control; (dose: 8.0 mg/kg/injection, schedule: Q03HX008 (ip), vehicle: saline) 88 % of control; (dose: 16.0 mg/kg/injection, schedule: Q01DX001 (ip), vehicle: saline) 170 % of control; (dose: 32.0 mg/kg/injection, schedule: Q01DX001 (ip), vehicle: saline) 189 % of control. For the same compound, the T/C (dose: 64.0 mg/kg/injection, schedule: Q01DX001 (ip), vehicle: saline) is 87 % of control.
On to `CCC[As](CCC)SC1OC(C2COC(C)(C)O2)C2OC(C)(C)OC12` (stereo not given), for which the T/C runs as follows: under setting [1], 100 % of control; under setting [2], 110 % of control.
As to `CC1=C(C(=O)Nc2ccccc2)C(c2ccccc2)C(C(=O)Nc2ccccc2)=C(C)N1`, the T/C by setting is: (dose: 100.0 mg/kg/injection, schedule: Q04DX002 (ip), vehicle: saline with Tween-80) 95 % of control; (dose: 200.0 mg/kg/injection, schedule: Q04DX002 (ip), vehicle: saline with Tween-80) 94 % of control; (dose: 400.0 mg/kg/injection, schedule: Q04DX002 (ip), vehicle: saline with Tween-80) 94 % of control.
For `BrC1=NOC2c3cccc4cccc(c34)C12` (stereo not given), the T/C by setting is: under setting [3], 108 % of control; under setting [4], 106 % of control; under setting [5], 105 % of control.
`CC1(COC(=O)C2(C)CO2)CO1` (stereo not given): the T/C was 99 % of control (dose: 25.0 mg/kg/injection, schedule: Q01DX005 (ip), vehicle: water); 91 % of control (dose: 50.0 mg/kg/injection, schedule: Q01DX005 (ip), vehicle: saline); 101 % of control and 115 % of control (dose: 50.0 mg/kg/injection, schedule: Q01DX005 (ip), vehicle: water); 97 % of control (dose: 100.0 mg/kg/injection, schedule: Q01DX005 (ip), vehicle: saline); 120 % of control (dose: 100.0 mg/kg/injection, schedule: Q01DX005 (ip), vehicle: water); 91 % of control (dose: 200.0 mg/kg/injection, schedule: Q01DX005 (ip), vehicle: saline).
Consider `CC1(C)OC2OC3C(CN)OC(c4ccccc4)OC3C2O1` (stereo not given), for which the T/C reads like this: under setting [6], 105 % of control; under setting [7], 103 % of control; under setting [8], 86 % of control.
For `O=[n+]1c2c(n([O-])c3ccccc31)-c1cccc3cccc-2c13`, the T/C (dose: 12.5 mg/kg/injection, schedule: Q01DX010 (ip), vehicle: saline) was 100 % of control; the T/C (dose: 25.0 mg/kg/injection, schedule: Q01DX010 (ip), vehicle: saline) was 100 % of control; the T/C (dose: 50.0 mg/kg/injection, schedule: Q01DX010 (ip), vehicle: saline) is 100 % of control; the T/C (dose: 100.0 mg/kg/injection, schedule: Q01DX010 (ip), vehicle: saline) is 100 % of control.
For the compound `CC(=O)c1ccc(Cl)c(-n2cccc2)c1`, the T/C was 95 % of control under setting [9] and 101 % of control under setting [10].
For `CCC[As](C)SCC1OC(OC(C)=O)C(OC(C)=O)C(OC(C)=O)C1OC(C)=O` (stereo not given), the T/C runs as follows: (dose: 50.0 mg/kg/injection, schedule: Q01DX009 (ip), vehicle: saline with Tween-80) 110 % of control; (dose: 100.0 mg/kg/injection, schedule: Q01DX009 (ip), vehicle: saline with Tween-80) 102 % of control; (dose: 200.0 mg/kg/injection, schedule: Q01DX009 (ip), vehicle: saline with Tween-80) 118 % of control.
Take `Cc1ccc2cccc(CC(=O)NN)c2c1`: the T/C under setting [3] is 104 % of control and the T/C under setting [4] was 97 % of control.
For `O=C1Nc2ccccc2/C1=N/N=C/c1ccc(Cl)cc1Cl`, the T/C is 100 % of control (dose: 50.0 mg/kg/injection, schedule: Q01DX009 (ip), vehicle: Klucel (hydroxypropylcellulose) (HPC)); 88 % of control and 90 % of control (dose: 100.0 mg/kg/injection, schedule: Q01DX009 (ip), vehicle: Klucel (hydroxypropylcellulose) (HPC)); 100 % of control and 98 % of control (dose: 200.0 mg/kg/injection, schedule: Q01DX009 (ip), vehicle: Klucel (hydroxypropylcellulose) (HPC)).
Consider `CN1CC(=O)[O][Sn]([CH3])([CH3])[O]C(=O)C1`, for which the T/C reads like this: (dose: 7.5 mg/kg/injection, schedule: Q01DX005 (ip), vehicle: Klucel (hydroxypropylcellulose) (HPC)) 119 % of control; (dose: 15.0 mg/kg/injection, schedule: Q01DX005 (ip), vehicle: Klucel (hydroxypropylcellulose) (HPC)) 122 % of control; (dose: 15.0 mg/kg/injection, schedule: Q01DX005 (ip), vehicle: saline with Tween-80) 101 % of control; (dose: 30.0 mg/kg/injection, schedule: Q01DX005 (ip), vehicle: Klucel (hydroxypropylcellulose) (HPC)) 122 % of control; (dose: 30.0 mg/kg/injection, schedule: Q01DX005 (ip), vehicle: saline with Tween-80) 116 % of control.
As to `CSc1ncc(C#N)c2nc(-c3ccccc3)nn12`, the T/C reads like this: under setting [6], 97 % of control; under setting [7], 94 % of control; under setting [8], 88 % of control.
With `Cn1cnc2c1c(=O)n(C(C(N)=O)C(N)=O)c(=O)n2C`, the T/C runs as follows: under setting [11], 104 % of control; under setting [12], 101 % of control.
On to `COc1ccc(C2Cc3cc(OC)c(OC)cc3C(c3ccc(OC)c(OC)c3)N2)cc1OC` (stereo not given), for which the T/C reads like this: under setting [3], 97 % of control; under setting [4], 88 % of control; under setting [5], 89 % of control.
For the compound `N#CCc1ccc([N+](=O)[O-])cc1C(=O)O`, the T/C under setting [6] was 104 % of control, the T/C under setting [7] was 104 % of control and the T/C under setting [8] is 101 % of control.
Regarding `CC(C)(C#N)NCCCCCCNC(C)(C)C#N`, the T/C by setting is: under setting [9], 96 % of control; under setting [10], 93 % of control; (dose: 200.0 mg/kg/injection, schedule: Q01DX005 (ip), vehicle: Klucel (hydroxypropylcellulose) (HPC)) 100 % of control.
Turning to `O=C1CCC([N+](=O)[O-])([N+](=O)[O-])CO1`, the T/C is, setting by setting: (dose: 100.0 mg/kg/injection, schedule: Q01DX001 (ip), vehicle: saline with Tween-80) 111 % of control; under setting [11], 106 % of control; under setting [12], 113 % of control.
Turning to `CCOC(=O)Nc1nncs1`, the T/C reads like this: under setting [1], 103 % of control; under setting [2], 105 % of control and 108 % of control; (dose: 50.0 mg/kg/injection, schedule: Q01DX009 (ip), vehicle: distilled water + Tween-80) 108 % of control; (dose: 100.0 mg/kg/injection, schedule: Q01DX009 (ip), vehicle: distilled water + Tween-80) 100 % of control; (dose: 200.0 mg/kg/injection, schedule: Q01DX009 (ip), vehicle: distilled water + Tween-80) 151 % of control and 168 % of control; (dose: 400.0 mg/kg/injection, schedule: Q01DX009 (ip), vehicle: distilled water + Tween-80) 108 % of control.
Turning to `O=C(O)CCCCCCCCCCCCCCC1C=CCC1` (stereo not given), the T/C by setting is: (dose: 100.0 mg/kg/injection, schedule: Q01DX001 (ip), vehicle: saline) 101 % of control; (dose: 200.0 mg/kg/injection, schedule: Q01DX001 (ip), vehicle: saline) 100 % of control; (dose: 400.0 mg/kg/injection, schedule: Q01DX001 (ip), vehicle: saline) 98 % of control.
